According to US6040434A, “Aldehyde oxidase inhibitors for treatment of aids” (priority 1997, dated 2000):

Legend:
[1] = molecular target: T1, S9 fraction of human liver (Homo sapiens, UniProt Q06278); assay: AMT formation from AZT by human liver S9 fraction / human liver samples; type: in vitro ADME; conditions: human liver samples; conversion of AZT to AMT
T1 construct: Human liver samples stored at -70° C. were partially thawed, homogenized; from tissue; host or cells: human liver, S9 fraction (9000 g supernatant)
T1 sequence (Q06278 1-1338): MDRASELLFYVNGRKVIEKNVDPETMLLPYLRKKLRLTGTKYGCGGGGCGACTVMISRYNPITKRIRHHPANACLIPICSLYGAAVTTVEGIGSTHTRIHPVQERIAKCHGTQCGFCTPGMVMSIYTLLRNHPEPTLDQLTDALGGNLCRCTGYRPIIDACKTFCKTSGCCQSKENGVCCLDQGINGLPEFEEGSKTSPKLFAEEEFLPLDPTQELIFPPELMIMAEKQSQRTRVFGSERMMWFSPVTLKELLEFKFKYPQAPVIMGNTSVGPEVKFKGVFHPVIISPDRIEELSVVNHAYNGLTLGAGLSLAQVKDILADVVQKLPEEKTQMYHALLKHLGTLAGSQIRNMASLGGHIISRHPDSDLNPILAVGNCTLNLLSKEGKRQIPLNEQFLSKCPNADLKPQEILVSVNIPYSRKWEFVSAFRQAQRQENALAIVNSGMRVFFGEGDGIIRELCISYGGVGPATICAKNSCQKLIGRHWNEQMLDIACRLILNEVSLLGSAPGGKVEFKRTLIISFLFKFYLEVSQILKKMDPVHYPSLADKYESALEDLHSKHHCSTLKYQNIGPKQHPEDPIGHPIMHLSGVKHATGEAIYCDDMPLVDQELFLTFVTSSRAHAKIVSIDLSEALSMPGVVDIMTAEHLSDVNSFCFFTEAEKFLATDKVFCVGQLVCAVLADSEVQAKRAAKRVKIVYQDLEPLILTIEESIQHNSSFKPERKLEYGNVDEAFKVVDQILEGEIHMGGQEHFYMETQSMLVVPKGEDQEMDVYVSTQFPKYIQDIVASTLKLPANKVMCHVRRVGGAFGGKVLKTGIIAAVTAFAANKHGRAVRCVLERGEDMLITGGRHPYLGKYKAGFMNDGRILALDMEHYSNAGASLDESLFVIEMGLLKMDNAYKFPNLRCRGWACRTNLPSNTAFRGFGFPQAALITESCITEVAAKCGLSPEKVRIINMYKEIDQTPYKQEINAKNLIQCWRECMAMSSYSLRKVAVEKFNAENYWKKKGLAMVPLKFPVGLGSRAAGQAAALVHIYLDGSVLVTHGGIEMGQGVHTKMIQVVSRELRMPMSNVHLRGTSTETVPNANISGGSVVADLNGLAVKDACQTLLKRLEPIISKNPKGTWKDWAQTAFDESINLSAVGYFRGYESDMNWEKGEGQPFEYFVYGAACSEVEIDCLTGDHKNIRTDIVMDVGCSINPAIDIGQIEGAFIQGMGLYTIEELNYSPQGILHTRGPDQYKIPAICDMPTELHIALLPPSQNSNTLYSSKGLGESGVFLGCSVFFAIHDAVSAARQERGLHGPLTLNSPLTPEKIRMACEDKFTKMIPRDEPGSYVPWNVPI
Excerpt: (§1) Hamster livers were processed by the same method.
(§2) This reduced the experimental variability and simplified the procedure. […] The method was as follows.
(§3) AMT formation by a human liver S9 fraction was compared with that by a hamster liver S9 fraction, as the hamster has the highest documented level of liver aldehyde oxidase activity (Kitamura, 1984; by Sugihara, 1996).

[2] = tested on: S9 fraction of human liver; assay: as above; type: in vitro ADME
Excerpt: as §1, §2, §3

bone marrow = conditions: cited from earlier work
[3] = in words; Veal et al., 1995; cited from earlier work
[4] = tested on: microsomal cytochrome P450 isozymes and microsomal NADPH-cytochrome P450 reductase; conditions: in words; Eagling (1994); cited from earlier work
retroviral replication = conditions: cited from earlier work

Cc1cn([C@H]2C[C@H](N=[N+]=[N-])[C@@H](CO)O2)c(=O)[nH]c1=O [AZT, 3'-azido-3'-deoxythymidine]
share of AMT formation due to cytosolic aldehyde oxidase (2-OHP-dependent) [1]: ≥ 90% | share of AMT formation due to microsomal enzyme activity [2]: less than 10% | patients treated with AZT suffering bone marrow toxicity (bone marrow; depending on dosage and disease stage): up to 51% | side-effect of bone marrow toxicity (bone marrow; in words): bone marrow toxicity, resulting in granulocytopenia and anemia | pathways of metabolism and elimination [3]: The predominant pathway of metabolism is by glucuronide formation and renal excretion | conversion of AZT to AMT by human liver microsomes [4]: the conversion was mediated by both microsomal cytochrome P450 isozymes and microsomal NADPH-cytochrome P450 reductase | inhibition of retroviral replication (retroviral replication): potent inhibitor of retroviral replication
